The values below are quoted from earlier work in patent US7939308B2, “Bio-based method for making mannitol” (The United States of America as represented by the …, priority 2002, dated 2011).

Converted amounts (≈) assume the structure as drawn.

For this series the following is noted: at 25° C.

Regarding `OC[C@@H](O)[C@@H](O)[C@H](O)[C@H](O)CO` [mannitol, Mannitol], the solubility limit is 180 mg/mL (≈ 988 mM).
